Structures are written as SMILES.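 In this assay, cells in 96-well plates receive the compound at five concentrations for 48 hours. Endpoints are linearly interpolated between the surrounding concentrations. Abbreviation: GI50, concentration required for 50% inhibition of growth.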 Active and inactive are the calls of the source. Cut-off read from the data, not from the text of the source: active = GI50 up to about 1.1 µM and inactive = higher.

Test systems include OVCAR-5; UACC-62; HL-60; HCT-116; K562; HCC 2998; NCI-H226; HT-29; SNB-19; ACHN; HOP-92; RXF 393; CAKI-1; NCI-H522; HCT-15; SF-268; OVCAR-4; EKVX; SK-MEL-2; SN12C.
Common to all, as to assay: NCI anticancer screen, dose series, 48 h

`CC1(C)C2CCC3(OCCO3)C1C(O)C2` (stereo not drawn): the GI50 in the assay with OVCAR-5, in the assay on UACC-62, in the assay on HL-60, with HCT-116, in the assay on K562 and in the assay with HCC 2998 was > 100 µM (inactive) throughout. Besides, the GI50 in the assay on NCI-H226, in the assay with HT-29, in the assay on SNB-19, with ACHN, with HOP-92 and with RXF 393 was > 100 µM (inactive) in each case. Besides, the GI50 is > 100 µM (inactive) in the assay with CAKI-1; > 100 µM (inactive) in the assay on NCI-H522; > 100 µM with HCT-15; > 100 µM (inactive) with SF-268; > 100 µM (inactive) in the assay with OVCAR-4; > 100 µM (inactive) with EKVX. Besides, in the assay with SK-MEL-2, the GI50 is > 100 µM (inactive).
As for `Cc1ccc([N+](=O)[O-])cc1/N=N/C(=O)NNc1cc([N+](=O)[O-])ccc1C`, the GI50 was 51.3 µM (inactive) with OVCAR-5; 14.7 µM (inactive) in the assay on UACC-62; 48.2 µM (inactive) in the assay with HL-60; 17.7 µM (inactive) in the assay with HCT-116; 19.7 µM (inactive) with K562; 23.3 µM (inactive) with HCC 2998. Further, the GI50 with NCI-H226 was > 10 µM (inactive); in the assay with HT-29, 21.9 µM (inactive); in the assay on SNB-19, 41.9 µM (inactive); in the assay with HOP-92, 70.8 µM (inactive); in the assay with RXF 393, 18.1 µM (inactive); in the assay with CAKI-1, 25.9 µM (inactive). The GI50 in the assay with NCI-H522 was 15.8 µM (inactive); in the assay with HCT-15, 21.7 µM; with SN12C it was > 10 µM (inactive); with SK-MEL-2, 24 µM (inactive).
`CN(C)CCSc1nccc(-c2ccc(-c3ccnc(SCCN(C)C)n3)s2)n1`: the GI50 is 9.1 µM (inactive) with OVCAR-5; 15.3 µM (inactive) in the assay with UACC-62; 2.37 µM (inactive) in the assay on HL-60; 3.33 µM (inactive) with HCT-116; 6.08 µM (inactive) with K562; 6.08 µM (inactive) in the assay on HCC 2998. For the same molecule, the GI50 was 12.9 µM (inactive) with NCI-H226; 2.57 µM (inactive) with HT-29; 11.1 µM (inactive) in the assay on SNB-19; 10.9 µM (inactive) in the assay with HOP-92; 6.14 µM (inactive) in the assay on RXF 393; 13.5 µM (inactive) in the assay on CAKI-1. Moreover, the GI50 is 15.9 µM (inactive) in the assay on NCI-H522; 4.65 µM in the assay with HCT-15; 6.75 µM (inactive) in the assay on SN12C; 8.17 µM (inactive) in the assay with SF-268; 4.13 µM (inactive) in the assay with OVCAR-4; 18.2 µM (inactive) in the assay on EKVX. In addition, the GI50 in the assay on SK-MEL-2 is 13.6 µM (inactive).
Regarding `O=C1OC(c2ccc(Cl)cc2)(c2ccc(Cl)cc2)c2c1ccc1ccccc21`, the GI50 is > 100 µM (inactive) in the assay with OVCAR-5; > 100 µM (inactive) in the assay on UACC-62; 8.69 µM (inactive) with HL-60; 54.5 µM (inactive) in the assay with K562; > 100 µM (inactive) in the assay on HCC 2998; 71.4 µM (inactive) with NCI-H226. In addition, the GI50 in the assay with HT-29 was > 100 µM (inactive); with SNB-19 it was > 100 µM (inactive); in the assay on ACHN, > 100 µM (inactive); in the assay on RXF 393, 20.9 µM (inactive); with CAKI-1, > 100 µM (inactive); in the assay on NCI-H522 it was 44.4 µM (inactive). The GI50 was > 100 µM in the assay with HCT-15; > 100 µM (inactive) with SN12C; > 100 µM (inactive) with SF-268; > 100 µM (inactive) in the assay with OVCAR-4; > 100 µM (inactive) in the assay on EKVX; > 100 µM (inactive) in the assay with SK-MEL-2.
Regarding `c1ccc(/N=C2/SC3=Nc4cccc5cccc(c45)N3/C2=N/c2ccccc2)cc1`, the GI50 in the assay on OVCAR-5 is > 100 µM (inactive); in the assay with UACC-62, > 100 µM (inactive); in the assay on HL-60, > 100 µM (inactive); in the assay on HCT-116, > 10 µM (inactive); in the assay with K562, > 100 µM (inactive); with HCC 2998, > 100 µM (inactive). Moreover, the GI50 with NCI-H226, with HT-29, with SNB-19, with HOP-92, in the assay with RXF 393 and with CAKI-1 was > 100 µM (inactive) each time. Also, the GI50 in the assay on NCI-H522 is > 100 µM (inactive); with HCT-15, > 100 µM; in the assay on SN12C, > 100 µM (inactive); in the assay on SK-MEL-2 it was > 100 µM (inactive).
Take `Nc1cc2nc(O)c(O)nc2cc1N`: the GI50 in the assay on OVCAR-5, in the assay with UACC-62, with HL-60, in the assay on HCT-116, with K562 and with HCC 2998 was > 100 µM (inactive) in each case. The GI50 in the assay on NCI-H226, in the assay on HT-29, with SNB-19, with ACHN, in the assay with HOP-92 and in the assay on RXF 393 was > 100 µM (inactive) throughout. Further, the GI50 with CAKI-1 is > 100 µM (inactive); in the assay on HCT-15, > 100 µM; in the assay on SN12C, > 100 µM (inactive); in the assay on SF-268 it was > 100 µM (inactive); in the assay with OVCAR-4, > 100 µM (inactive); in the assay on EKVX it was > 100 µM (inactive). Also, the GI50 in the assay on SK-MEL-2 was > 100 µM (inactive).
Take `CSC1NC(c2ccccc2)=C(C#N)C(=O)N1C1OCC(OC(C)=O)C(OC(C)=O)C1OC(C)=O` (stereo not drawn): the GI50 with OVCAR-5 was > 100 µM (inactive); in the assay with UACC-62 it was > 100 µM (inactive); with HCT-116, 47.9 µM (inactive); with K562 it was > 100 µM (inactive); with HCC 2998, > 100 µM (inactive); in the assay with NCI-H226, > 100 µM (inactive). The GI50 is > 100 µM (inactive) in the assay on HT-29; > 100 µM (inactive) with SNB-19; > 100 µM (inactive) in the assay with ACHN; 86.3 µM (inactive) in the assay with HOP-92; > 100 µM (inactive) in the assay on RXF 393; > 100 µM (inactive) in the assay on CAKI-1. Moreover, the GI50 with NCI-H522 is > 100 µM (inactive); in the assay with HCT-15, > 100 µM; with SN12C it was > 100 µM (inactive); in the assay on SF-268 it was > 100 µM (inactive); in the assay with OVCAR-4, > 100 µM (inactive); with EKVX, > 100 µM (inactive).
For the molecule `COc1ccc2c(C)cc(N/N=C/c3sccc3C)nc2c1`, the GI50 in the assay with OVCAR-5 is 13.5 µM (inactive); in the assay with UACC-62 it was 15.9 µM (inactive); in the assay on HL-60, 46.8 µM (inactive); in the assay with HCT-116 it was 4.08 µM (inactive); in the assay with HCC 2998 it was 12.6 µM (inactive); with NCI-H226, 10 µM (inactive). Moreover, the GI50 is 2.81 µM (inactive) in the assay with HT-29; 21.7 µM (inactive) in the assay with SNB-19; 21.7 µM (inactive) in the assay with ACHN; 16.1 µM (inactive) in the assay on HOP-92; 14.9 µM (inactive) in the assay with RXF 393; 10.2 µM (inactive) with NCI-H522. Besides, the GI50 in the assay on HCT-15 was 6.03 µM; in the assay on SN12C it was 7.11 µM (inactive); in the assay with SF-268, 17.4 µM (inactive); in the assay with OVCAR-4, 20.9 µM (inactive); in the assay on EKVX, > 10 µM (inactive); in the assay with SK-MEL-2 it was 15.6 µM (inactive).
Consider `CO[C@@H]1O[C@H](C(=O)c2ccccc2)[C@H]2OC(C)(C)O[C@@H]12`, for which the GI50 with OVCAR-5 was > 100 µM (inactive); in the assay with UACC-62 it was > 100 µM (inactive); with HL-60, 21.1 µM (inactive); in the assay with HCT-116, 75.3 µM (inactive); in the assay with K562 it was > 100 µM (inactive); with HCC 2998 it was > 100 µM (inactive). Also, the GI50 with NCI-H226, in the assay on SNB-19, in the assay with HOP-92, in the assay on RXF 393, with CAKI-1 and in the assay with NCI-H522 was > 100 µM (inactive) in each case. Besides, the GI50 was 55.2 µM in the assay with HCT-15; 89.7 µM (inactive) in the assay with SN12C; > 100 µM (inactive) with SF-268; > 100 µM (inactive) in the assay on OVCAR-4; 86.5 µM (inactive) in the assay on EKVX; > 100 µM (inactive) with SK-MEL-2.
On to `COC(=O)c1cccc(C(=O)OC)c1`, for which the GI50 in the assay with OVCAR-5, in the assay on HL-60, with HCT-116, with HCC 2998, in the assay with NCI-H226 and in the assay on HT-29 was > 100 µM (inactive) each time. Further, the GI50 with SNB-19, with ACHN, in the assay on HOP-92, in the assay on RXF 393, in the assay with CAKI-1 and in the assay on NCI-H522 was > 100 µM (inactive) each time. Besides, the GI50 is > 100 µM in the assay with HCT-15; > 100 µM (inactive) with SN12C; > 100 µM (inactive) with SF-268; > 100 µM (inactive) in the assay with OVCAR-4; > 100 µM (inactive) in the assay on SK-MEL-2.
Regarding `O=C(O)CCC(NC(=O)c1ccc(Nc2nc3cc(C(F)(F)F)ccc3nc2C(=O)O)cc1)C(=O)O` (stereo not drawn), the GI50 with OVCAR-5, in the assay with UACC-62, with HL-60, in the assay on HCT-116, with K562 and in the assay on HCC 2998 was > 100 µM (inactive) each time. The GI50 with NCI-H226, with HT-29, in the assay on SNB-19, in the assay with ACHN, in the assay with HOP-92 and in the assay with RXF 393 was > 100 µM (inactive) throughout. The GI50 with NCI-H522 is > 100 µM (inactive); in the assay with HCT-15 it was > 100 µM; in the assay with SF-268 it was > 100 µM (inactive); in the assay on EKVX, > 100 µM (inactive); in the assay on SK-MEL-2, > 100 µM (inactive).
Regarding `CCOC1=C2N=C(Cc3ccc(F)cc3)NC2C(=O)c2ccccc21` (stereo not drawn), the GI50 is 45.4 µM (inactive) with OVCAR-5; 22.1 µM (inactive) with UACC-62; 4.68 µM (inactive) in the assay with HL-60; > 10 µM (inactive) in the assay with HCT-116; 17.9 µM (inactive) in the assay with K562; 25.8 µM (inactive) in the assay on HCC 2998. In addition, the GI50 is 21.1 µM (inactive) with HT-29; 14 µM (inactive) in the assay on ACHN; 10.7 µM (inactive) with HOP-92; 18.3 µM (inactive) in the assay on RXF 393; 8.67 µM (inactive) in the assay on NCI-H522; 23.2 µM (inactive) with EKVX. Also, in the assay on SK-MEL-2, the GI50 was 17.6 µM (inactive).

Source of the values: ChEMBL document CHEMBL1201862, “PubChem BioAssay data set” (2004).
